As a reminder, the Ki is the dissociation constant of the complex between target and ligand, obtained from inhibition or displacement.

Read-outs that look alike come from different tables or passages of the source.

Series [1] deals with T1, rat 5-HT1A receptor (Rattus norvegicus, UniProt P19327).
T1 construct: from tissue; host or cells: rat hippocampus, membrane (microsomal) fraction
T1 sequence (P19327 1-422): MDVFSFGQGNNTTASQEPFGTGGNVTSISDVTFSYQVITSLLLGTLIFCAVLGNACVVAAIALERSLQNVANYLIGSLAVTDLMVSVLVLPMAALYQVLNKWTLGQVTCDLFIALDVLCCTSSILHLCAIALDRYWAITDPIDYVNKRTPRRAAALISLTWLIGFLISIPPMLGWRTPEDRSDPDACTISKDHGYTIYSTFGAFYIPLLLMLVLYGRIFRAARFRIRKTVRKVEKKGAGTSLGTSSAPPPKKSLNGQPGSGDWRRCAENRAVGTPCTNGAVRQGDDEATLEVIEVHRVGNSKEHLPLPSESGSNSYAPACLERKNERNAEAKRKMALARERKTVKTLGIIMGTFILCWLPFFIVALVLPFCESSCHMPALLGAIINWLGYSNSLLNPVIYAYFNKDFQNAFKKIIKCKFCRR
Put plainly: Binding assay in rat hippocampal membrane fraction ([3H]MPPF). The following applies: rat hippocampal membranes, 0.3 nM [3H]MPPF, 25°C 60 min; read-out: Ki, 5-HT1A receptor affinity.
Protocol: Rat hippocampal samples were weighed, homogenized in 10-fold volume of 50 mM Tris-HCl (pH 7.4) on an ice bath, and centrifuged (50,000×g, 4°C, 20 min). The precipitate was further homogenized in a 10-fold volume of 50 mM Tris-HCl (pH 7.4) on an ice bath and centrifuged (50,000×g, 4°C, 20 min). The obtained precipitate was homogenized in 50 mM Tris-HCl (pH 7.4) to render a concentration of 100 mg tissue eq./mL. The obtained microsomal fraction was stored as a receptor stock solution at -80°C until use. […] MPPF in a total 1-ml reaction volume at 25°C for 60 min. The reaction was terminated, and bound radioactivity was separated from free radioligands by filtering and washing three times with 3 ml of 50 mM Tris-HCl (pH 7.4). The radioactivity content of the filters in 5 ml of liquid scintillator (Atomlight; PerkinElmer) was counted by TR2500 scintillation counter (PerkinElmer Life & Analytical Sciences). The specific binding was determined as the difference between total and nonspecific binding, measured in the absence and presence of 100 µM 5-HT. Data were analyzed by Scatchard plot to estimate equilibrium constant (Kd) values. For the competition experiments, binding assays were carried out using 0.3 nM [^3H] […] MPPF according to the following equation:
Ki=IC50/1+[radioligand]/Kd (1)
where [radioligand] means the concentration of the radioligand used.

The target in series [2] is T2, 5-HT1A receptors (Rattus norvegicus, UniProt P19327).
T2 construct: occupancy of 5-HT1A receptors in living Sprague-Dawley rat brains; from tissue; host or cells: living Sprague-Dawley rat brain (medial prefrontal cortex, dorsal raphe nucleus), in vivo PET
T2 sequence (P19327 1-422): T1 sequence (P19327 1-422)
The series is described as follows: PET 5-HT1A receptor occupancy, time-course study (effect compartment model). The following applies: for EC50: time-course study. It is filed as in vivo, Sprague-Dawley rat. The method, then: All PET scans for rats were performed with a small animal-dedicated microPET FOCUS 220 system (Siemens Medical Solutions USA, Knoxville, TN, USA), which yields a 25.8 cm (transaxial) × 7.6 cm (axial) field of view (FOV) and a spatial resolution of 1.3 mm full width at half maximum at the center of FOV [8]. The rats were anesthetized with 1.5-2% isoflurane in air (2 L/min flow rate). Their body temperature was controlled using homeothermic controller and plate with a rectal probe, and their heart rates and arterial oxygen saturations were continuously measured by a pulse oximeter (CANL-425SVA; Med Associates, St. Albans, VT, USA). We also monitored respiration rates of these animals with a custom-made monitoring system (Nagano Electronics, Hitachinaka, Japan). A 20-min transmission scan for attenuation correction was performed using a spiraling ^68Ge-^68Ga point source. Subsequently, list-mode scans were carried out for 90 min. All list-mode data were sorted and Fourier rebinned into two-dimensional sinograms (frames: 4 × 1, 8 × 2, and 14 × 5 min). Images were thereafter reconstructed using two-dimensional filtered back-projection with a 0.5-mm Hanning filter. [^11C]-WAY-100635 was injected via the tail vein as a single bolus at the start of emission scanning. The injected dose of the radiotracer was 85.3 ± 28.6 MBq/rat (mean ± SD).
Anatomical regions of interest (ROIs) were placed on the medial prefrontal cortex (MPFC) and dorsal raphe nucleus (DRN) using PMOD® image software (PMOD Group, Zurich, Switzerland) with reference to the MRI template. Radioligand binding was examined by calculating the binding potential (BP ND; ratio at equilibrium of specifically-bound radioligand to that of nondisplaceable radioligand in tissue) based on a simplified reference tissue model (SRTM) using the cerebellar time-radioactivity curve as reference.
Occupancy of 5-HT1A receptors by E2110 was calculated using the following equation:
RO(%)=BPND,baseline−BPND,drug/BPND,baseline×100 (2)
where BP ND, baseline and BP ND, drug are estimated BP ND at baseline and following drug administration, respectively.
To examine the dose-RO relationship at a single time point, four male SD rats, which had undergone a baseline PET imaging in advance, were scanned with PET at 4 hours after being pretreated with 4 oral doses (0.3, 1, 3, 10 mg/kg) of E2110. In this assay, approximately 250 µL of blood samples were collected from the tail vein upon initiation of the scan for quantification of plasma concentration of E2110. We further examined RO at different time points after the drug administration by conducting PET scans of four male SD rats at 2, 4, 6 or 8 hours after pretreatment with a single oral dose of 1 mg/kg E2110. In addition to this series of PET assays for male rats, pilot PET scans for female rats (n = 3) were carried out at baseline and 4 hours after oral administration of 0.1 mg/kg E2110 to examine whether relationships between plasma concentration of E2110 and RO by this drug in the brain are consistent between two genders. In all experiments, scans for the same individual receiving E2110 were conducted more than 1 week apart.
(§1) The effect compartment model is illustrated in Figure 2. The mean plasma concentration profile of E2110 in each of four rats was fitted by two-compartment model with first order absorption and elimination. A sigmoid Emax model (Equation 4) based on the concentration in the effect compartment was fitted to the PD (RO) data. PK and PD models were linked using an effect compartment model described by the following equation: […]
(§2) where Cp and Ce are concentrations of E2110 in the plasma and effect compartments, respectively, and ke0 represents the equilibration rate constant for the effect compartment. PK and PD parameters were estimated by using […] (Version 2.01, MicroMath Research, UT, USA).

For series [3], the system named is 5-HT1A receptors. The series is described as follows: Effect compartment model simulation of 5-HT1A RO in female rats. Details: species or system female SD rats. As to conditions: for simulated 5-HT1A RO: DRN.
From the text: as §1, §2

Series [4] relates to micturition interval. The series is described as follows: 5-HT1A receptor agonist (8-OH-DPAT)-induced model of OAB, cystometry. It is filed as in vivo, female SD rats.
Protocol: Catheter implantations and cystometric investigations were performed based on the reported method [14]. Briefly, on the day before the cystometric experiment, female SD rats were initially anesthetized with pentobarbital (50 mg/kg ip). Catheters were inserted into the femoral vein, the dome of the stomach and the dome of the bladder. In the cystometric study, the bladder catheter was connected to an infusion pump and a pressure transducer (DX-312; Nihon Kohden Co., Tokyo, Japan) by three-way stopcock. Saline was infused into the bladder and femoral vein. After bladder pressure was stabilized, 8-OH-DPAT (0.06 mg/kg/h) was infused into the femoral vein instead of saline. Bladder pressure was monitored with a pressure transducer and a pressure amplifier (AP-601G; Nihon Kohden), and recorded on a pen recorder (WT-645G; Nihon Kohden). The following three micturition intervals (i.e., intervals between consecutive peaks of bladder pressure induced at the time of bladder content evacuation) were obtained: (1) basal micturition interval (intervals before 8-OH-DPAT administration), (2) pre-administration micturition interval, (intervals immediately before administration of E2110 or vehicle), and (3) post-administration micturition interval (intervals observed between 1 and 2 hr after administration of E2110 or vehicle). […] E2110 (0.03, 0.1 or 0.3 mg/kg) or vehicle was administered to four groups of eight conscious rats orally.
Data are expressed as mean ± standard error of mean (S.E.M). In the pharmacological study, the statistical significance of differences between the vehicle- and E2110-treated groups was tested using one-way analysis of variance (ANOVA) followed by Dunnett’s multiple comparison test. A probability (p) value of <0.05 (two-sided) was considered statistically significant. All statistical analyses were performed using the SAS software package version 8.1 or 8.2 (SAS Institute Japan Ltd., Tokyo, Japan).
The test system of series [5] is 5-HT1A receptors. The series is described as follows: [35S]guanosine-5'-O-(3-thio)-triphosphate binding studies. The following applies: stated in introduction, no data shown. The series is classed as biochemical.

In the case of `CNC(=O)c1ccc2ccn(C3CCN(CCc4c(OC)ccc5c4OC(C)(C)CC5=O)CC3)c2c1.O=C(O)/C=C/C(=O)O` [E2110, 1-{1-[2-(7-Methoxy-2,2-dimethyl-4-oxochroman-8-yl)ethyl]piperidine-4-yl}-N-methyl-1H-indole-6-carboxamide fumarate], in series [1], the inhibition constant (Ki) stood at 0.045 nM. In addition, the EC50 is 7.38 nM in series [2] (DRN, 1 mg/kg oral, male SD rats, effect compartment model, read-out: EC50 for occupancy of 5-HT1A receptors (converted)); 5.94 nM in series [2] (DRN, effect compartment model, read-out: EC50 for occupancy of 5-HT1A receptors (converted)); 0.44 nM in series [2] (DRN, read-out: EC50 for 5-HT1A RO, value in parentheses (free concentration-based)); 5.85 nM in series [2] (MPFC, 1 mg/kg oral, male SD rats, effect compartment model, read-out: EC50 for occupancy of 5-HT1A receptors (converted)); 4.74 nM in series [2] (MPFC, effect compartment model, read-out: EC50 for occupancy of 5-HT1A receptors (converted)); 0.35 nM in series [2] (MPFC, read-out: EC50 for 5-HT1A RO, value in parentheses (free concentration-based)). For the same molecule, the half-life in series [2] (Sprague-Dawley, rat, effect compartment model, 1 mg/kg oral, male SD rats, read-out: CNS equilibration t1/2 (from ke0) (converted)) was 1.4 h. Besides, in series [2] (female rats, 4 hours after oral 0.1 mg/kg, pilot study n = 3), the “5-HT1A RO measured by PET versus simulated RO” value is on record as “in good agreement with calculated data”. Besides, in series [3] (0.1 mg/kg (8-OH-DPAT model, 1-2 hours postdose) and 0.3 mg/kg (SCL model, 0.5-1 hour postdose)), the “simulated RO at minimum effective doses during micturition monitoring period” value is reported as “around 60%”. The “simulated 5-HT1A RO” value in series [3] (0.1 mg/kg oral, 1-2 hours after dosing, 8-OH-DPAT treatment) is 60-70%; in series [3] (0.3 mg/kg oral, 0.5-1 hour after dosing, SCL model), 60-80%. Further, the “5-HT1A RO required for significant effects on micturition” value in series [3] (inferred from simulated RO and pharmacological tests) is given as no less than 60%. The “minimum dose exerting overt therapeutic effects on the micturition reflex” value in series [4] (8-OH-DPAT model, oral) is 0.1 mg/kg. The “effect on micturition interval” value in series [4] (oral 0.1-0.3 mg/kg, 8-OH-DPAT-infused female SD rats, 1-2 hr after administration) was “significantly (p < 0.05) prolonged the micturition intervals”. In addition, the “functional character at 5-HT1A receptors” value in series [5] was “full antagonist”.

Values taken from article PMC3781034, “A Small-Animal Pharmacokinetic/Pharmacodynamic PET Study of Central Serotonin 1A Receptor Occupancy by a Potential Therapeutic Agent for Overactive Bladder” (PLoS ONE, 2013).
